Consider 4 compounds from US20070259914A1, “Novel Piperidine Derivates as Modulators of Chemokine Receptor Ccr5” (priority 2004, published 2007).

The structures appear in SMILES notation.

Chain of recombinant human CCR5 receptor (P51681 whole entry): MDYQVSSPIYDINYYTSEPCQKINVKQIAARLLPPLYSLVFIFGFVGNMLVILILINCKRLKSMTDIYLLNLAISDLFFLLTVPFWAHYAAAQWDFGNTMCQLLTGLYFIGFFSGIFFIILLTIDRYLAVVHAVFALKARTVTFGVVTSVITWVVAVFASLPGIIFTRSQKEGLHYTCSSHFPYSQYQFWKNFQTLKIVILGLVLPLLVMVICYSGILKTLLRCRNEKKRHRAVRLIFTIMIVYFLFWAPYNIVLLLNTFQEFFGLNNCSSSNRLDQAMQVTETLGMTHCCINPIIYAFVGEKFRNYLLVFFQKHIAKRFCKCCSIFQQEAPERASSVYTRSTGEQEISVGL

This assay concerns the target recombinant human CCR5 receptor (Homo sapiens, UniProt P51681). As to the kind of experiment: MIP-1α radioligand binding assay (scintillation proximity, CHO cell membranes). Conditions: displacement of 0.1 nM iodinated MIP-1α from membranes of Chinese hamster ovary cells expressing recombinant human CCR5; average if tested more than once. The method, then: The ability of compounds to inhibit the binding of MIP-1α was assessed by an in vitro radioligand binding assay. Membranes were prepared from Chinese hamster ovary cells which expressed the recombinant human CCR5 receptor. These membranes were incubated with 0.1 nM iodinated MIP-1α, scintillation proximity beads and various concentrations of the compounds of the invention in 96-well plates. The amount of iodinated MIP-1α bound to the receptor was determined by scintillation counting.
In Table II the results are presented as Pic50 values. […] If a as tested more than once then the data below is an average of the probative tests
Broadly, the IC50 is the concentration that inhibits the measured activity by half. Take `CCN(C(=O)Cc1ccc(S(C)(=O)=O)cc1)C1CCN(CC[C@@H](c2cc(F)cc(F)c2)C2CCN(S(C)(=O)=O)CC2)CC1` [Compound 1, N-(1-{(3R)-3-(3,5-difluorophenyl)-3-[1-(methylsulfonyl)piperidin-4-yl]propyl}piperidin-4-yl)-N-ethyl-2-[4-(methylsulfonyl)phenyl]-acetamide]: the IC50 was 0.316 nM. As for `CCN(C(=O)NCc1ccc(S(C)(=O)=O)cc1)C1CCN(CC[C@@H](c2cc(F)cc(F)c2)C2CCN(S(C)(=O)=O)CC2)CC1` [Compound 2], the IC50 is 0.501 nM.

Turning to `CCN(C(=O)Cc1ccc(S(C)(=O)=O)cc1)C1CCN(CC[C@@H](c2cccc(C(F)(F)F)c2)C2CCN(S(C)(=O)=O)CC2)CC1` [Compound 3], the 50% inhibitory concentration (IC50) was 3.55 nM. Regarding `CS(=O)(=O)c1ccc(CC(=O)N(C2CC2)C2CCN(CC[C@@H](c3cc(F)cc(F)c3)C3CCN(S(C)(=O)=O)CC3)CC2)cc1` [Compound 4], the IC50 is 1.58 nM.
